From patent publication US4554289A, “OF4949” (Takara Shuzo Co., Ltd., priority 1982, dated 1985)

Tests used:
[1] = tested on: cellular immunity (delayed type hypersensitivity to sheep erythrocytes); experiment: Delayed type hypersensitivity (DTH) to sheep erythrocytes, hind paw edema (cellular immunity); format: in vivo, CDF1 strain female mice; details: for Thickness of Edema (Mean Value ± Standard Error): hind paw, 24 hours after challenge; for Potentiating Ratio to Control: control = 100
Method: Thus, sheep erythrocytes are used as antigen and 1×10^5 of them are subjected to intravenous injection to CDF1 strain female mice of 10 weeks of age (8 mice per group) and, immediately after the sensitization, a solution of OF4949 or derivatives thereof in a sterilized water is injected intraperitoneally with dosages of 5, 50 or 500 μg/kg and, after four days, 10^8 sheep erythrocytes are injected subcutaneously into left hind paws of the mice. After 24 hours, the degree of edema, i.e. thickness of the paws at that time, observed at the hind paws is measured using a slide calipers.

[2] = Neutral, acidic or basic properties; format: physicochemical
Solubilities = format: physicochemical
ICR strains of mice = experiment: Acute toxicity test, 300 mg/kg intraperitoneally; format: in vivo
Method: The compounds of the present invention are also characterized by a very low toxicity, making their administration to humans and animals facile. Acute toxicity tests injecting 300 mg/kg intraperitoneally of representative compounds of the present invention to ICR strains of mice produced the toxicity results set forth in Table 9 below: […]

[3] = in methyl alcohol and ethyl alcohol
[4] = in n-propyl alcohol, n-butyl alcohol, acetone, ethyl acetate, chloroform, ether, benzene, and hexane
[5] = in water, alkaline water, and dimethyl sulfoxide

Compound | Thickness of Edema (Mean Value ± Standard Error) ([1]; 5 μg/kg intraperitoneally) | Potentiating Ratio to Control ([1]; 5 μg/kg intraperitoneally) | Thickness of Edema (Mean Value ± Standard Error) ([1]; 50 μg/kg intraperitoneally) | Potentiating Ratio to Control ([1]; 50 μg/kg intraperitoneally) | Thickness of Edema (Mean Value ± Standard Error) ([1]; 500 μg/kg intraperitoneally) | Potentiating Ratio to Control ([1]; 500 μg/kg intraperitoneally) | Neutral, acidic or basic properties [2] | Solubility (Solubilities; [3]) | Solubility (Solubilities; [4]) | Solubility (Solubilities; [5]) | Acute toxicity test result (ICR strains of mice)
NC1Cc2ccc(O)c(c2)Oc2ccc(cc2)CC(C(=O)O)NC(=O)C(C(O)C(=O)O)NC1=O (stereo not drawn) [Compound 2] | 9.3 ± 1.2 × 0.1 mm | 116% | 9.1 ± 1.1 × 0.1 mm | 114% | 10.2 ± 0.9 × 0.1 mm | 128% | – | – | – | – | –
COc1ccc2cc1Oc1ccc(cc1)CC(C(N)=O)NC(=O)C(C(O)C(N)=O)NC(=O)C(N)C2 (stereo not drawn) [Compound 17] | 8.8 ± 0.7 × 0.1 mm | 126% | 8.4 ± 0.7 × 0.1 mm | 120% | 8.5 ± 0.7 × 0.1 mm | 121% | – | – | – | – | –
COc1ccc2cc1Oc1ccc(cc1)CC(CO)NC(=O)C(C(O)CO)NC(=O)C(N)C2 (stereo not drawn) [Compound 21] | 7.8 ± 0.8 × 0.1 mm | 111% | 7.8 ± 0.7 × 0.1 mm | 111% | 8.7 ± 0.8 × 0.1 mm | 124% | – | – | – | – | –
COc1ccc2cc1Oc1ccc(cc1)CC(C(=O)O)NC(=O)C(C(O)C(=O)O)NC(=O)C(N)C2 (stereo not drawn) [Compound 18] | 8.2 ± 0.7 × 0.1 mm | 117% | 8.5 ± 0.7 × 0.1 mm | 121% | 7.5 ± 0.6 × 0.1 mm | 107% | – | – | – | – | –
COc1ccc2cc1Oc1ccc(cc1)CC(C(=O)O)NC(=O)C(C(O)C(N)=O)NC(=O)C(N)C2 (stereo not drawn) [OF4949-I] | 9.5 ± 0.6 × 0.1 mm | 132% | 11.7 ± 1.5 × 0.1 mm | 163% | 9.1 ± 0.5 × 0.1 mm | 126% | amphoteric | hardly soluble | insoluble | soluble | No toxicity is observed
NC(=O)C(O)C1NC(=O)C(N)Cc2ccc(O)c(c2)Oc2ccc(cc2)CC(C(=O)O)NC1=O (stereo not drawn) [OF4949-II] | 11.7 ± 1.9 × 0.1 mm | 127% | 13.5 ± 1.2 × 0.1 mm | 147% | 11.4 ± 2.6 × 0.1 mm | 124% | amphoteric | hardly soluble | insoluble | soluble | –
